# Source: US20120077802A1 (SUNOVION PHARMACEUTICALS INC., priority 2009, published 2012)
# Target: T1, human histamine H3 receptor (Homo sapiens, UniProt Q9Y5N1)
# T1 construct: host or cells: cells expressing the human H3 receptor
# Experiment: H3 GTPγS assay (SPA method), histamine H3 in vitro assay
# Format: biochemical
# Settings: GTPγ[35S] SPA, membranes of cells expressing human H3 receptor; in one embodiment HCl salts tested; read-out: Potency (functional potency as indicated by IC50)
# Experimental: H3 GTPγS assay (SPA method) was performed at EuroScreen (Belgium, ES-392-C) using conventional methods. Briefly, cells expressing the human histamine H3 receptor were homogenized in 15 mM Tris-HCl pH 7.5, 2 mM MgCl2, 0.3 mM EDTA, and 1 mM EGTA. Membranes were washed twice in the above tris buffer, collected by centrifugation (40,000×g, 25 min), and re-suspended in 75 mM Tris-HCl pH 7.5, 12.5 mM MgCl2, 0.3 mM EDTA, 1 mM EGTA, and 250 mM sucrose. Membranes were frozen in liquid nitrogen until use. On the day of the assay, membranes were thawed and diluted in assay buffer (20 mM HEPES pH 7.4, 100 mM NaCl, 10 μg/ml saponin, 1 mM MgCl2) to give 500 μg/ml and mixed (v/v) with GDP in assay buffer for a final GDP concentration of 10 μM and incubated on ice for at least 15 min. PVT-WGA beads (Amersham, RPNQ001) were diluted in assay buffer at 50 mg/mL and mixed with GTPγ[^35S] (Amersham, SJ1308) diluted in assay buffer to give ˜25,000 dpm/10 μL, and mixed vol/vol just before the start of the reaction. The reaction was started by adding 50 μL of test compound, 20 μL of the membranes:GDP mix, 10 μL of buffer, and 20 μL of the GTPγ[^35S]:beads mix in a 96 well plate Optiplate™ (PerkinElmer, 6005299) covered with topseal (TopCount™, PerkinElmer), mixed with an orbital shaker for 2 min, incubated for 1 hour at room temperature, centrifuged for 10 min at 2000 rpm, incubated for 1 h at room temperature, and counted for 1 min in a TopCount™ reader (PerkinElmer). Dose response curves and IC50 values (concentration to inhibit the reaction by 50%) were calculated by nonlinear regression using XLfit software (IDBS).
# For antagonists testing, 10 μL of a reference agonist (R-γ-Me-Histamine) instead of 10 μL buffer was added at a concentration corresponding to the EC80 (30 nM). Control ligands were R-γ-Me-Histamine (Tocris, 0569), Imetit (Sigma, I-135), Thioperamide (Tocris, 0644), and Clobenpropit (Tocris, 0754) diluted in assay buffer.
# The compounds provided herein were tested in the histamine H3 in vitro assay. In one embodiment, the respective HCl salts of the compounds provided herein were prepared using standard chemical procedures and tested in the histamine H3 in vitro assay.
# T1 sequence (Q9Y5N1 whole entry): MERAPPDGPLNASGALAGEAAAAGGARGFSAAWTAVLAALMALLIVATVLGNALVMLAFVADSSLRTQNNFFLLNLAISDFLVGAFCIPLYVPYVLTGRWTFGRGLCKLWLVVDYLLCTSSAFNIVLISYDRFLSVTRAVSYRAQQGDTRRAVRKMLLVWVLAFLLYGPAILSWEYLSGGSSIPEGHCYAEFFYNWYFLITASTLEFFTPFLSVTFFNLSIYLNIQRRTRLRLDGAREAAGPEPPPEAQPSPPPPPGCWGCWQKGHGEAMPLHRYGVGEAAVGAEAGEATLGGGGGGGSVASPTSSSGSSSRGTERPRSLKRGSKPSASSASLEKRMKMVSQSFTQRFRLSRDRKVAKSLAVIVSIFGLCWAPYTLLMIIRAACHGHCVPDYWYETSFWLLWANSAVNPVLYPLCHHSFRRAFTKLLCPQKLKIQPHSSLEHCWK
row,IC50 [nM],SMILES
1,≤ 10,"N#Cc1ccc(-c2ccc3c(c2)CC2(CCN(C4CCC4)CC2)O3)cc1 [Compound 5, 4-(1′-Cyclobutyl-3H-spiro[benzofuran-2,4′-piperidine]-5-yl)benzonitrile]"
2,≤ 10,"c1cn2cc(-c3ccc4c(c3)CC3(CCN(C5CCC5)CC3)O4)ccc2n1 [Compound 30, 1′-Cyclobutyl-5-(imidazo[1,2-a]pyridin-6-yl)-3H-spiro[benzofuran-2,4′-piperidine]]"
3,≤ 10,"c1cc2ncc(-c3ccc4c(c3)CC3(CCN(C5CCC5)CC3)O4)cc2o1 [Compound 60, 1′-Cyclobutyl-5-(furo[3,2-b]pyridin-6-yl)-3H-spiro[benzofuran-2,4′-piperidine]]"
4,≤ 10,"Cn1cnc2cc(-c3ccc4c(c3)CC3(CCN(C5CCC5)CC3)O4)cnc21 [Compound 61, 1′-Cyclobutyl-5-(3-methyl-3H-imidazo[4,5-b]pyridin-6-yl)-3H-spiro[benzofuran-2,4′-piperidine]]"
5,≤ 10,"c1nc2ccc(-c3ccc4c(c3)CC3(CCN(C5CCC5)CC3)O4)cn2n1 [Compound 62, 5-([1,2,4]Triazolo[1,5-a]pyridin-6-yl)-1′-cyclobutyl-3H-spiro[benzofuran-2,4′-piperidine]]"
6,≤ 10,c1cc2c(cc1-c1ccc3nncn3c1)CC1(CCN(C3CCC3)CC1)O2 [Compound 63]
7,≤ 10,"c1cc2c(cc1-c1cnc3[nH]ncc3c1)CC1(CCN(C3CCC3)CC1)O2 [Compound 64, 1′-Cyclobutyl-5-(1H-pyrazolo[3,4-b]pyridin-5-yl)-3H-spiro[benzofuran-2,4′-piperidine]]"
8,≤ 10,"Cn1ncc2ccc(-c3ccc4c(c3)CC3(CCN(C5CCC5)CC3)O4)cc21 [Compound 65, 1′-Cyclobutyl-5-(1-methyl-1H-indazol-6-yl)-3H-spiro[benzofuran-2,4′-piperidine]]"
9,≤ 10,"Cn1cc2ccc(-c3ccc4c(c3)CC3(CCN(C5CCC5)CC3)O4)cc2n1 [Compound 66, 1′-Cyclobutyl-5-(2-methyl-2H-indazol-6-yl)-3H-spiro[benzofuran-2,4′-piperidine]]"
10,≤ 1000,"Clc1ccc2c(c1)OC1(CCCN(C3CCC3)CC1)C2 (centres unmarked) [Compound 67, 6′-Chloro-1-cyclobutyl-3′H-spiro[azepane-4,2′-benzofuran]]"
11,≤ 100,"N#Cc1ccc(-c2ccc3c(c2)OC2(CCCN(C4CCC4)CC2)C3)cc1 (centres unmarked) [Compound 68, 4-(1-Cyclobutyl-3′H-spiro[azepane-4,2′-benzofuran]-6′-yl)benzonitrile]"
12,≤ 100,"c1cn2cc(-c3ccc4c(c3)OC3(CCCN(C5CCC5)CC3)C4)ccc2n1 (centres unmarked) [Compound 69, 1-Cyclobutyl-6′-(imidazo[1,2-a]pyridin-6-yl)-3′H-spiro[azepane-4,2′-benzofuran]]"
13,≤ 10,"c1ccc2c(c1)ncn2-c1ccc2c(c1)OC1(CCCN(C3CCC3)CC1)C2 (centres unmarked) [Compound 70, 6′-(1H-Benzo[d]imidazol-1-yl)-1-cyclobutyl-3′H-spiro[azepane-4,2′-benzofuran]]"
14,≤ 100,"c1cc2c(cc1N1CCCCC1)OC1(CCCN(C3CCC3)CC1)C2 (centres unmarked) [Compound 71, 1-Cyclobutyl-6′-(piperidin-1-yl)-3′H-spiro[azepane-4,2′-benzofuran]]"
15,≤ 10,"N#Cc1ccc(-c2ccc3c(c2)CC2(CCN4CCCCC4C2)O3)cc1 (centres unmarked) [Compound 74, 4-(-1′,3′,4′,6′,7′,8′,9′,9a′-Octahydro-3H-spiro[benzofuran-2,2′-quinolizin]-5-yl)benzonitrile]"
16,≤ 10,"N#Cc1ccc(-c2ccc3c(c2)CC2(CCN4CCCCC4C2)O3)cc1 (centres unmarked) [Compound 75, 4-(-1′,3′,4′,6′,7′,8′,9′,9a′-Octahydro-3H-spiro[benzofuran-2,2′-quinolizin]-5-yl)benzonitrile]"
17,≤ 10,"c1cn2cc(-c3ccc4c(c3)CC3(CCN5CCCCC5C3)O4)ccc2n1 (centres unmarked) [Compound 76, 5-(Imidazo[1,2-a]pyridin-6-yl)-1′,3′,4′,6′,7′,8′,9′,9a′-octahydro-3H-spiro[benzofuran-2,2′-quinolizine]]"
18,≤ 10,"c1cn2cc(-c3ccc4c(c3)CC3(CCN5CCCCC5C3)O4)ccc2n1 (centres unmarked) [Compound 77, 5-(Imidazo[1,2-a]pyridin-6-yl)-1′,3′,4′,6′,7′,8′,9′,9a′-octahydro-3H-spiro[benzofuran-2,2′-quinolizine]]"
19,≤ 10,"c1cc2c(cc1CN1CCOCC1)CC1(CCN3CCCCC3C1)O2 (centres unmarked) [Compound 78, 5-(Morpholinomethyl)-1′,3′,4′,6′,7′,8′,9′,9a′-octahydro-3H-spiro[benzofuran-2,2′-quinolizine]]"
20,≤ 10,"c1cc2c(cc1CN1CCOCC1)CC1(CCN3CCCCC3C1)O2 (centres unmarked) [Compound 79, 5-(Morpholinomethyl)-1′,3′,4′,6′,7′,8′,9′,9a′-octahydro-3H-spiro[benzofuran-2,2′-quinolizine]]"
21,≤ 10,"c1ccc2c(c1)CCN(Cc1ccc3c(c1)CC1(CCN4CCCCC4C1)O3)C2 (centres unmarked) [Compound 80, 5-((3,4-Dihydroisoquinolin-2(1H)-yl)methyl)-1′,3′,4′,6′,7′,8′,9′,9a′-octahydro-3H-spiro[benzofuran-2,2′-quinolizine]]"
22,≤ 10,"c1ccc2c(c1)CCN(Cc1ccc3c(c1)CC1(CCN4CCCCC4C1)O3)C2 (centres unmarked) [Compound 81, 5-((3,4-Dihydroisoquinolin-2(1H)-yl)methyl)-1′,3′,4′,6′,7′,8′,9′,9a′-octahydro-3H-spiro[benzofuran-2,2′-quinolizine]]"
23,≤ 100,"c1cn2cc(-c3ccc4c(c3)CC3(CCC5CCCCN5CC3)O4)ccc2n1 (centres unmarked) [Compound 83, 5-(Imidazo[1,2-a]pyridin-6-yl)-2′,3′,4′,6′,7′,9′,10′,10a′-octahydro-1′H,3H-spiro[benzofuran-2,8′-pyrido[1,2-a]azepine]]"
24,≤ 100,"c1cn2cc(-c3ccc4c(c3)CC3(CCCN5CCCCC5C3)O4)ccc2n1 (centres unmarked) [Compound 84, 5-(imidazo[1,2-a]pyridin-6-yl)-2′,3′,4′,6′,7′,8′,10′,10a′-octahydro-1′H,3H-spiro[benzofuran-2,9′-pyrido[1,2-a]azepine]]"
25,≤ 10,"N#Cc1ccc(-c2ccc3c(c2)CC2(CCC4CCCCN4CC2)O3)cc1 (centres unmarked) [Compound 85, 4-(2′,3′,4′,6′,7′,9′,10′,10a′-Octahydro-1′H,3H-spiro[benzofuran-2,8′-pyrido[1,2-a]azepin]-5-yl)benzonitrile]"
26,≤ 10,"N#Cc1ccc(-c2ccc3c(c2)CC2(CCCN4CCCCC4C2)O3)cc1 (centres unmarked) [Compound 86, 4-(2′,3′,4′,6′,7′,8′,10′,10a′-octahydro-1′H,3H-spiro[benzofuran-2,9′-pyrido[1,2-a]azepin]-5-yl)benzonitrile]"
27,≤ 10,"N#Cc1ccc(-c2ccc3c(c2)CC2(CCN4CCCC4C2)O3)cc1 (centres unmarked) [Compound 90, 4-(2′,3′,5′,6′,8′,8a′-Hexahydro-1′H,3H-spiro[benzofuran-2,7′-indolizin]-5-yl)benzonitrile]"
28,≤ 10,"c1cn2cc(-c3ccc4c(c3)CC3(CCN5CCCC5C3)O4)ccc2n1 (centres unmarked) [Compound 91, 5-(Imidazo[1,2-a]pyridin-6-yl)-2′,3′,5′,6′,8′,8a′-hexahydro-1′H,3H-spiro[benzofuran-2,7′-indolizine]]"
29,≤ 10,"c1cc2c(cc1CN1CCOCC1)CC1(CCN3CCCC3C1)O2 (centres unmarked) [Compound 92, 5-(Morpholinomethyl)-2′,3′,5′,6′,8′,8a′-hexahydro-1′H,3H-spiro[benzofuran-2,7′-indolizine]]"
30,≤ 10,c1ccc2c(c1)CCN(Cc1ccc3c(c1)CC1(CCN4CCCC4C1)O3)C2 (centres unmarked) [Compound 93]

row,SMILES,IC50 [nM]
1,"Brc1ccc2c(c1)CC1(CCN3CCCC3C1)O2 (centres unmarked) [Compound 89, 5-Bromo-2′,3′,5′,6′,8′,8a′-hexahydro-1′H,3H-spiro[benzofuran-2,7′-indolizine]]",≤ 100

# Tested on: not listed separately
# Experiment: In vivo rat PK, brain exposures
# Settings: adult male rats, oral gavage in water, 5 mg/kg, 1 hr after dosing, read-out: Compound Concentration (ng/g rat brain) 1 hr
# Experimental: In vivo rat PK studies were performed using certain compounds provided herein. In one embodiment, a compound was dissolved in water and was administered to adult male rats (n=3 per time point) by oral gavage at a dose of 3 to 10 mg/kg. The plasma samples were collected and brain tissues were harvested at various time points after dosing, e.g., 15 min, 30 min, 1 hr, 2 hr, and 24 hr after dosing. The PK samples were analyzed; and the compound concentrations in these samples were quantified by LC/MS. The pKa values of the R^6 moiety of the compounds were calculated using ACD Lab (Version 12.01).
row,concentration at 1 hr [ng/g],SMILES
1,3100,"N#Cc1ccc(-c2ccc3c(c2)CC2(CCN(C4CCC4)CC2)O3)cc1 [Compound 5, 4-(1′-Cyclobutyl-3H-spiro[benzofuran-2,4′-piperidine]-5-yl)benzonitrile]"

# Same assay, conditions: adult male rats, oral gavage in water, 5 mg/kg, 24 hr after dosing, read-out: Compound Concentration (ng/g rat brain) 24 hr
row,concentration at 24 hr [ng/g],SMILES
1,400,"N#Cc1ccc(-c2ccc3c(c2)CC2(CCN(C4CCC4)CC2)O3)cc1 [Compound 5, 4-(1′-Cyclobutyl-3H-spiro[benzofuran-2,4′-piperidine]-5-yl)benzonitrile]"

# Same assay, conditions: adult male rats, oral gavage in water, 10 mg/kg, 1 hr after dosing, read-out: Compound Concentration (ng/g rat brain) 1 hr
row,concentration at 1 hr [ng/g],SMILES
1,5200,"c1cn2cc(-c3ccc4c(c3)CC3(CCN(C5CCC5)CC3)O4)ccc2n1 [Compound 30, 1′-Cyclobutyl-5-(imidazo[1,2-a]pyridin-6-yl)-3H-spiro[benzofuran-2,4′-piperidine]]"

# Same assay, conditions: adult male rats, oral gavage in water, 10 mg/kg, 24 hr after dosing, read-out: Compound Concentration (ng/g rat brain) 24 hr
row,concentration at 24 hr [ng/g],SMILES
1,250,"c1cn2cc(-c3ccc4c(c3)CC3(CCN(C5CCC5)CC3)O4)ccc2n1 [Compound 30, 1′-Cyclobutyl-5-(imidazo[1,2-a]pyridin-6-yl)-3H-spiro[benzofuran-2,4′-piperidine]]"
